Measured values from patent publication US20240327381A1, “Compounds and Compositions for Selective Degradation of Engineered Proteins” (Celgene Corporation, priority 2023, published 2024).
Like-named read-outs stand apart in the source and are kept apart here.

Key:
[1] = target: T1, IKZF1 ZNF2_ZNF3 Q1F degron-tagged CD19 CAR (Homo sapiens, UniProt Q13422, Q146F); assay: Degradation of Q1F degron-tagged CD19 CAR in Jurkat cells (flow cytometry of CAR levels); assay type: cell-based
T1 construct: ZNF2_ZNF3 Q1F degron (GERPFFCNQCGASFTQKGNLLRHIKLHSGEKPFKCHLCNYACRRRDALTGHLRTHS); fused on or other part: anti-CD19 scFv, CD28 transmembrane domain, 4-1BB costimulatory domain, CD3 zeta signaling domain (the CAR that carries the degron), and Nluc
T1 sequence (Q13422 whole entry Q146F, the tested form may be a part): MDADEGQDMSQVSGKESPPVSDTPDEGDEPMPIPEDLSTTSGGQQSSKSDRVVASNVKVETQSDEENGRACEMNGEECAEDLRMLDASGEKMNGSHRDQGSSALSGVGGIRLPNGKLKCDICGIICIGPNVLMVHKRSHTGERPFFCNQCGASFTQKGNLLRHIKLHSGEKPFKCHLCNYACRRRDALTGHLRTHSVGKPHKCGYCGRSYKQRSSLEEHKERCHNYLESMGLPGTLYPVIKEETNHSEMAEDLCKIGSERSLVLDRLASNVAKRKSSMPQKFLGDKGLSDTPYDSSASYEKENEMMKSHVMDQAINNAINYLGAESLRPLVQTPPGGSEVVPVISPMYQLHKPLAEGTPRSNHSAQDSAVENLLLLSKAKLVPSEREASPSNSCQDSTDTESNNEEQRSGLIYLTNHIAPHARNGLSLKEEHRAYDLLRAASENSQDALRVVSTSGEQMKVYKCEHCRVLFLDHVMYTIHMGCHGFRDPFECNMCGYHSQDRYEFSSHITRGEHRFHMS
Description: Q1F degron-targeting compounds were screened in Jurkat cells engineered to express a IKZF1 ZNF2_ZNF3 Q1F. The cell line was generated with lentiviral vectors containing CD19 CARs tagged with IKZF1 ZNF2_ZNF3 QIF Nluc, which were transduced into Jurkat cells. The CD19 CAR comprised an anti-CD19 scFv, a CD28 transmembrane domain, a 4-1BB costimulatory domain, a CD3ζ signaling domain, and a ZNF2_ZNF3 Q1F degron (GERPFFCNQCGASFTQKGNLLRHIKLHSGEKPFKCHLCNYACRRRDALTGHLRTHS; SEQ ID NO: 1; Q1F substitution underlined). Transduced cells were treated with a titration of each small molecule or no drug and then incubated at 37° C. for 18 hours. Cells were washed and stained with appropriate staining reagent to measure CAR levels. The cells were incubated at 4° C. in the staining reagents for 20 mins and then washed 3 times before being read on the flow cytometer. CAR levels were normalized to cells that had not been treated with drug. EC50 and Ymin values were calculated using the resulting titration curve. This identified small molecules that potently degraded the Q1F degron-tagged CARs (Table 1).
(§1) To determine the EC50 value of a compound for the degradation of a given substrate (concentration of compound that achieves half the maximum degradation observed), a four-parameter logistic model (sigmoidal dose-response model) (FIT=(A+{(B−A)/1+[(C/x)D]})) where C is the inflection point (EC50), D is the […], and A and B are the low and high limits of the fit, respectively) was used. All substrate degradation curves were processed and evaluated using ActivityBase (IDBS), a data analysis software package. Ymax is the % protein degraded (Ymin=100−Ymax and is minimum percent protein remaining).

Helios = target: T2, Helios (Homo sapiens, UniProt Q9UKS7); assay: Helios degradation in Jurkat/Helios/HiBit cells (Nano-Glo luminescence); assay type: cell-based; settings: 18 hr, read-out: Helios Jurkat Hibit IC50
T2 construct: endogenous in cells; host or cells: Jurkat cells, CRISPR/Cas9 knock-in of HiBit at the IKZF2 locus
T2 sequence (Q9UKS7 whole entry): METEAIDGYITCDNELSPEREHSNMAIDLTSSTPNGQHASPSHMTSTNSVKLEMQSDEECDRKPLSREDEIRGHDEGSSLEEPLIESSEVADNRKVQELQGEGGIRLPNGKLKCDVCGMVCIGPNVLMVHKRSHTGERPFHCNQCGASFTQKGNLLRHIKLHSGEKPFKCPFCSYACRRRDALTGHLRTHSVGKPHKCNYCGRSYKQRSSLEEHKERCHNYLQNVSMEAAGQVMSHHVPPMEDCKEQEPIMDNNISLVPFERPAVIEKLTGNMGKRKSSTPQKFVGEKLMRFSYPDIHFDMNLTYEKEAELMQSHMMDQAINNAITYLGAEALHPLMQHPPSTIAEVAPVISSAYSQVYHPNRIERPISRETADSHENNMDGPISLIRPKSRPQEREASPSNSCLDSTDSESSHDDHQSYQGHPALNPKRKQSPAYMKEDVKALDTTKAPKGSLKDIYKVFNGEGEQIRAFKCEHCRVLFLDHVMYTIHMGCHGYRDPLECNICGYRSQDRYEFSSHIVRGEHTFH
T2 sequence (Q96SW2 whole entry, further chain): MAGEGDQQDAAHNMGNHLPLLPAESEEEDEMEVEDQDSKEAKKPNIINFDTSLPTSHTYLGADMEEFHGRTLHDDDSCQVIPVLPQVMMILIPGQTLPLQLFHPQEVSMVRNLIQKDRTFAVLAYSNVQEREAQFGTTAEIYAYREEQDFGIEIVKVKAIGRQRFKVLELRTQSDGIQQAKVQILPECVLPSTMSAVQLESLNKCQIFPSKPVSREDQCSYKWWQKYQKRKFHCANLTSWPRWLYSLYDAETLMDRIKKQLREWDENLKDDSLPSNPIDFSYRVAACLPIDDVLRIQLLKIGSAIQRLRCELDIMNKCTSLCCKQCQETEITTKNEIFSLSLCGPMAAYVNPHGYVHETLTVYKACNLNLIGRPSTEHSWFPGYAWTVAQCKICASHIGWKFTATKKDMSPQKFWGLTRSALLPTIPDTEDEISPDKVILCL
T2 sequence (Q16531 whole entry partner): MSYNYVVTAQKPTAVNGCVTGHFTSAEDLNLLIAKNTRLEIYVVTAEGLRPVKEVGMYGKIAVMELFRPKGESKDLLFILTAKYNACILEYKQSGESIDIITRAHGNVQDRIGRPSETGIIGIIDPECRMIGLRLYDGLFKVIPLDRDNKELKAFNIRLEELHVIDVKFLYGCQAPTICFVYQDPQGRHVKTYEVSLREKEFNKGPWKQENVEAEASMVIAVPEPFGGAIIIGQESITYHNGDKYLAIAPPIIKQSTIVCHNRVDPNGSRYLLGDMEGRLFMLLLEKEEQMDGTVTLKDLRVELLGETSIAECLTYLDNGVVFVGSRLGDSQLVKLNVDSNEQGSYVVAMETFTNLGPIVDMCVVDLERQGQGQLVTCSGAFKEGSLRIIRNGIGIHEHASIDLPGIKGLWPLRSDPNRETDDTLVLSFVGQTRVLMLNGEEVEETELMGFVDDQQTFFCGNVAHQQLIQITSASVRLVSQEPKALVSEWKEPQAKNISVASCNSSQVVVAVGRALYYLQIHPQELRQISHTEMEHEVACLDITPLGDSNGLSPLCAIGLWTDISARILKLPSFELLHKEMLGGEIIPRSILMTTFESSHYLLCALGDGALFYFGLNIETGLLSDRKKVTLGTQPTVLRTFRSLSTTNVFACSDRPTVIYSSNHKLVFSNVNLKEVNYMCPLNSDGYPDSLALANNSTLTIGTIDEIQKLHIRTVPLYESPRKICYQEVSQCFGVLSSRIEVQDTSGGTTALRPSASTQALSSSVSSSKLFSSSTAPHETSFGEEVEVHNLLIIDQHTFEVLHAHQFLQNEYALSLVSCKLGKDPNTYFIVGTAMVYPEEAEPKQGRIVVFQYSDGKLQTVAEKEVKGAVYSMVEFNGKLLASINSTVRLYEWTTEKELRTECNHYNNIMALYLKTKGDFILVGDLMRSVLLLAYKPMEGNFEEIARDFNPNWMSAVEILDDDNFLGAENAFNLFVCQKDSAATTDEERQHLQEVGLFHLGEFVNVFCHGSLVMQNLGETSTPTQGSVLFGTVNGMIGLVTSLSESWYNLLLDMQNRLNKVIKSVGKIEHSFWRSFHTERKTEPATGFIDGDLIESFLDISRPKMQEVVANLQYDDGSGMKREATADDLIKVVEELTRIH
Description: For Helios, a stable Jurkat cell line was engineered using CRISPR/Cas9 to insert an in-frame HiBit tag into the carboxy-terminal reading frame of the IKZF2 gene. The sequence of human Helios is shown below:
Test compounds were transferred to 1536 well plates using an acoustic dispenser, and Jurkat/Helios/HiBit cells in DMEM/10% FCS were plated at 10,000 cells/well in a final volume of 5 μL. Cells were incubated at 37 C, 95% RH for 18 hr. Luciferase activity was measured by adding 2 μL/well of Nano-Glo reagent (Promega), incubating at RT for 30 min, and reading luminescence on a microtiter plate reader.
as §1

[2] = Jurkat cells expressing CD19 CAR tagged with IKZF1 ZNF2_ZNF3 Q1F; 18 hours at 37° C.; CAR levels normalized to untreated cells; read-out: Q1F Jurkat IC50
[3] = Ymax is the % protein degraded; Jurkat cells expressing Q1F degron-tagged CD19 CAR; 18 hours; read-out: Q1F Jurkat-YMax
[4] = Jurkat, 18 h, read-out: Q1F Jurkat-YMax

SMILES	DC50 [1, 2] [nM]	Dmax [1, 3] [%]	DC50 (Helios) [nM]	Dmax [1, 4] [%]	DC50 ([1]; read-out: Q1F Jurkat IC50; Jurkat cells expressing CD19 CAR tagged with IKZF1 ZNF2_ZNF3 Q1F; 18 hours at 37° C.; CAR levels normalized to untreated cells) [nM]
O=C1CCC(N2Cc3c(cc(F)c(C4(O)CCN(Cc5cc(C(F)(F)F)cc(C6CC6)n5)CC4)c3F)C2=O)C(=O)N1 (stereo not drawn) [Compound 17, 3-(5-(1-((6-cyclopropyl-4-(trifluoromethyl)pyridin-2-yl)methyl)-4-hydroxypiperidin-4-yl)-4,6-difluoro-1-oxoisoindolin-2-yl)piperidine-2,6-dione]	28.9	69.2	≥ 10000	–	–
O=C1CCC(N2Cc3c(cc(F)c(C4CCN(Cc5ccc6ncsc6c5)CC4)c3F)C2=O)C(=O)N1 (stereo not drawn) [Compound 18, 3-(5-(1-(benzo[d]thiazol-6-ylmethyl)piperidin-4-yl)-4,6-difluoro-1-oxoisoindolin-2-yl) piperidine-2,6-dione]	0.576	93.4	≥ 10000	–	–
O=C1CCC(N2Cc3c(cc(F)c(C4(O)CCN(Cc5ccc(C(F)F)cc5)CC4)c3F)C2=O)C(=O)N1 (stereo not drawn) [Compound 19, 3-(5-(1-(4-(difluoromethyl)benzyl)-4-hydroxypiperidin-4-yl)-4,6-difluoro-1-oxoisoindolin-2-yl)piperidine-2,6-dione]	5.41	83.3	≥ 10000	–	–
O=C1CCC(N2Cc3c(cc(F)c(C4(O)CCN(Cc5ccc(C(F)(F)F)cc5O)CC4)c3F)C2=O)C(=O)N1 (stereo not drawn) [Compound 22, 3-(4,6-difluoro-5-(4-hydroxy-1-(2-hydroxy-4-(trifluoromethyl)benzyl)piperidin-4-yl)-1-oxoisoindolin-2-yl)piperidine-2,6-dione]	14.3	80	≥ 10000	–	–
O=C1CCC(N2Cc3c(cc(F)c(C4(O)CCN(Cc5cccc(C(F)(F)F)c5)CC4)c3F)C2=O)C(=O)N1 (stereo not drawn) [Compound 26, 3-(4,6-difluoro-5-(4-hydroxy-1-(3-(trifluoromethyl)benzyl)piperidin-4-yl)-1-oxoisoindolin-2-yl)piperidine-2,6-dione]	6.42	78.2	≥ 10000	–	–
Cc1ccc(CN2CCC(O)(c3c(F)cc4c(c3F)CN(C3CCC(=O)NC3=O)C4=O)CC2)cc1F (stereo not drawn) [Compound 28, 3-(4,6-difluoro-5-(1-(3-fluoro-4-methylbenzyl)-4-hydroxypiperidin-4-yl)-1-oxoisoindolin-2-yl)piperidine-2,6-dione]	4.78	79.4	≥ 10000	–	–
O=C1CCC(N2Cc3c(cc(F)c(C4(O)CCN(Cc5ccc6ccccc6n5)CC4)c3F)C2=O)C(=O)N1 (stereo not drawn) [Compound 29, 3-(4,6-difluoro-5-(4-hydroxy-1-(quinolin-2-ylmethyl)piperidin-4-yl)-1-oxoisoindolin-2-yl)piperidine-2,6-dione]	6.42	87	≥ 10000	–	–
O=C1CCC(N2Cc3c(cc(F)c(C4(O)CCN(Cc5ccc(C(F)(F)F)cc5Br)CC4)c3F)C2=O)C(=O)N1 (stereo not drawn) [Compound 31, 3-(5-(1-(2-bromo-4-(trifluoromethyl)benzyl)-4-hydroxypiperidin-4-yl)-4,6-difluoro-1-oxoisoindolin-2-yl)piperidine-2,6-dione]	14	82.8	≥ 10000	–	–
O=C1CCC(N2Cc3c(cc(F)c(C4(O)CCN(Cc5ccccc5C(F)(F)F)CC4)c3F)C2=O)C(=O)N1 (stereo not drawn) [Compound 32, 3-(4,6-difluoro-5-(4-hydroxy-1-(2-(trifluoromethyl)benzyl)piperidin-4-yl)-1-oxoisoindolin-2-yl)piperidine-2,6-dione]	9.54	80.2	≥ 10000	–	–
O=C1CCC(N2Cc3c(cc(F)c(C4(O)CCN(CC5CCCCC5)CC4)c3F)C2=O)C(=O)N1 (stereo not drawn) [Compound 33, 3-(5-(1-(cyclohexylmethyl)-4-hydroxypiperidin-4-yl)-4,6-difluoro-1-oxoisoindolin-2-yl)piperidine-2,6-dione]	192	60.4	≥ 10000	–	–
Cc1cc(-c2cc3c(cc2F)C(=O)N(C2CCC(=O)NC2=O)C3)nc(N)c1C (stereo not drawn) [Compound 34, 3-(5-(6-amino-4,5-dimethylpyridin-2-yl)-6-fluoro-1-oxoisoindolin-2-yl) piperidine-2,6-dione]	7.43	–	≥ 10000	91.7	–
O=C1CCC(N2Cc3cc(C4(O)CCN(Cc5ccc6ncsc6c5)CC4)c(F)cc3C2=O)C(=O)N1 (stereo not drawn) [Compound 35, 3-(5-(1-(benzo[d]thiazol-6-ylmethyl)-4-hydroxypiperidin-4-yl)-6-fluoro-1-oxoisoindolin-2-yl) piperidine-2,6-dione]	144	63.3	≥ 10000	–	–
COc1cccc(CN2CCC(O)(c3c(F)cc4c(c3F)CN(C3CCC(=O)NC3=O)C4=O)CC2)c1 (stereo not drawn) [Compound 36, 3-(4,6-difluoro-5-(4-hydroxy-1-(3-methoxybenzyl)piperidin-4-yl)-1-oxoisoindolin-2-yl)piperidine-2,6-dione]	3.77	77.7	≥ 10000	–	–
COc1ccc(CN2CCC(O)(c3c(F)cc4c(c3F)CN(C3CCC(=O)NC3=O)C4=O)CC2)nc1 (stereo not drawn) [Compound 37, 3-(4,6-difluoro-5-(4-hydroxy-1-((5-methoxypyridin-2-yl)methyl)piperidin-4-yl)-1-oxoisoindolin-2-yl)piperidine-2,6-dione]	33.2	62.5	≥ 10000	–	–
COc1cccc(CN2CCC(O)(c3c(F)cc4c(c3F)CN(C3CCC(=O)NC3=O)C4=O)CC2)n1 (stereo not drawn) [Compound 38, 3-(4,6-difluoro-5-(4-hydroxy-1-((6-methoxypyridin-2-yl)methyl)piperidin-4-yl)-1-oxoisoindolin-2-yl)piperidine-2,6-dione]	24.5	70.7	≥ 10000	–	–
Cc1nc(C)c(S(=O)(=O)N(C)CCN2CCC(O)(c3c(F)cc4c(c3F)CN(C3CCC(=O)NC3=O)C4=O)CC2)s1 (stereo not drawn) [Compound 39, N-[2-[4-[2-(2,6-dioxo-3-piperidyl)-4,6-difluoro-1-oxo-isoindolin-5-yl]-4-hydroxy-1-piperidyl]ethyl]-N,2,4-trimethyl-thiazole-5-sulfonamide]	–	–	≥ 10000	58.9	93.8
CN(CCN1CCC(O)(c2c(F)cc3c(c2F)CN(C2CCC(=O)NC2=O)C3=O)CC1)S(=O)(=O)c1ccccc1 (stereo not drawn) [Compound 40, N-[2-[4-[2-(2,6-dioxo-3-piperidyl)-4,6-difluoro-1-oxo-isoindolin-5-yl]-4-hydroxy-1-piperidyl]ethyl]-N-methyl-benzenesulfonamide]	67.7	60	≥ 10000	–	–
O=C1CCC(N2Cc3c(cc(F)c(C4(O)CCN(Cc5n[nH]c6ccccc56)CC4)c3F)C2=O)C(=O)N1 (stereo not drawn) [Compound 41, 3-[4,6-difluoro-5-[4-hydroxy-1-(1H-indazol-3-ylmethyl)-4-piperidyl]-1-oxo-isoindolin-2-yl] piperidine-2,6-dione]	95.3	66.2	≥ 10000	–	–
O=C1CCC(N2Cc3c(cc(F)c(C4(O)CCN(Cc5ccc6cn[nH]c6c5)CC4)c3F)C2=O)C(=O)N1 (stereo not drawn) [Compound 42, 3-[4,6-difluoro-5-[4-hydroxy-1-(1H-indazol-6-ylmethyl)-4-piperidyl]-1-oxo-isoindolin-2-yl]piperidine-2,6-dione]	4.39	87.7	≥ 10000	–	–
Cc1ccc(CN2CCC(O)(c3c(F)cc4c(c3F)CN(C3CCC(=O)NC3=O)C4=O)CC2)cc1C (stereo not drawn) [Compound 43, 3-[5-[1-[(3,4-dimethylphenyl)methyl]-4-hydroxy-4-piperidyl]-4,6-difluoro-1-oxo-isoindolin-2-yl]piperidine-2,6-dione]	2.75	80.2	≥ 10000	–	–
O=C1CCC(N2Cc3c(cc(F)c(C4(O)CCN(Cc5ccc6nc[nH]c6c5)CC4)c3F)C2=O)C(=O)N1 (stereo not drawn) [Compound 44, 3-[5-[1-(3H-benzimidazol-5-ylmethyl)-4-hydroxy-4-piperidyl]-4,6-difluoro-1-oxo-isoindolin-2-yl]piperidine-2,6-dione]	120	82.1	≥ 10000	–	–
